Results on three compounds are retold here after patent US11578102B2, “LAG3 binding peptides” (Leidos, Inc., priority 2020, dated 2023).

SMILES strings stand for the structures. pIC50: −log10 of the molar value. Residues, ends and D or L forms follow the SMILES beside them.

The experiment concerns the target T1, human LAG3/FGL1 interaction (Homo sapiens, UniProt P18627).
T1 construct: purchased BPS Bioscience
T1 sequence (P18627 23-450 limits assumed): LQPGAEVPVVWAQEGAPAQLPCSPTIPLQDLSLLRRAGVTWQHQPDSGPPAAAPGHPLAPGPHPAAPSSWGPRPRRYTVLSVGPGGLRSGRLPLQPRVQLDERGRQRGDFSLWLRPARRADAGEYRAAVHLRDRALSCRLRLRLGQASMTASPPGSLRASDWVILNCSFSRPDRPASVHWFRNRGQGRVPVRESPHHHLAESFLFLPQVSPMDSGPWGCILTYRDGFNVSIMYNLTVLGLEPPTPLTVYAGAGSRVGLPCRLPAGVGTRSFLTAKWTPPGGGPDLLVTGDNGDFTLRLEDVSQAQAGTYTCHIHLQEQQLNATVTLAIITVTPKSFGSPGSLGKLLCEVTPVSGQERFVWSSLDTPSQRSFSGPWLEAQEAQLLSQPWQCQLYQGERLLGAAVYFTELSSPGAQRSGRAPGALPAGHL
Nature of the experiment: Human LAG3/FGL1 TR-FRET Binding Assay (BPS Bioscience). The settings on record: peptides tested at 100, 33, and 11 μM; 1 hr at RT; read-out: IC50 in LAG3:FLG1 TR-FRET Assay. Here is the method: This example tested the ability of peptides to inhibit the interaction between human LAG3 and FGL1. The peptides were tested using a Human LAG3/FGL1 TR-FRET Binding Assay (BPS Bioscience) carried out according to the manufacturer's instructions.
Peptides 6, 41, 68, 69, 115, 146, 154, and 155 were tested at 100, 33, and 11 μM. Peptide LG56 ([…]; SEQ ID NO:14) served as a peptide positive control. Peptide 93 (SEQ ID NO:15) served as a negative or low activating peptide control. A neutralizing anti-human LAG3 antibody (BPS Bioscience Cat. #71219) was used as an antibody positive control.
Reaction mixes were incubated 1 hr at RT before development. After development, plate was read in a Tecan M1000 TR-FRET instrument.
A general note: Time-resolved FRET reads energy transfer from a long-lived donor to a nearby acceptor.
Regarding `CC[C@H](C)[C@H](NC(=O)[C@H](C)NC(=O)CNC(=O)[C@H](C)NC(=O)[C@H](CC(N)=O)NC(=O)[C@@H]1CCCN1C(=O)[C@H](Cc1ccc(O)cc1)NC(=O)[C@H](CCC(N)=O)NC(=O)[C@H](CCCCN)NC(=O)[C@H](CCC(N)=O)NC(=O)[C@@H](NC(=O)[C@H](CCC(N)=O)NC(=O)[C@H](CCC(=O)O)NC(=O)[C@H](CCCCN)NC(=O)[C@@H](NC(=O)[C@@H]1CCCN1C(=O)[C@H](C)NC(=O)[C@@H]1CCCN1C(=O)[C@@H](NC(=O)[C@@H](N)CCCNC(=N)N)C(C)C)C(C)C)C(C)C)C(=O)O` [Low Activity Peptide, reference compound] (H-RVPAPVKEQVQKQYPNAGAI-OH; N-terminus and C-terminus assumed), the pIC50 – broadly, −log10 of the IC50, conventionally taken in molar units – is less than 4.00. Under `CC[C@H](C)[C@H](NC(=O)[C@H](CC(=O)O)NC(=O)[C@H](CC(=O)O)NC(=O)[C@H](C)NC(=O)[C@H](Cc1ccc(O)cc1)NC(=O)[C@H](CC(C)C)NC(=O)[C@H](CCCNC(=N)N)NC(=O)[C@@H](NC(=O)[C@H](CCC(=O)O)NC(=O)[C@H](CCCCN)NC(=O)[C@H](CCC(=O)O)NC(=O)[C@H](CC(=O)O)NC(=O)[C@H](Cc1c[nH]c2ccccc12)NC(=O)[C@H](CC(=O)O)NC(=O)[C@H](CCSC)NC(=O)[C@H](CCCNC(=N)N)NC(=O)[C@H](Cc1ccccc1)NC(=O)[C@@H](N)C(C)C)C(C)C)C(=O)N[C@@H](CC(C)C)C(=O)N[C@@H](CC(C)C)C(=O)O` [Peptide 146] (H-VFRMDWDEKEVRLYADDILL-OH; N-terminus and C-terminus assumed) stands 5.14. Under `CSCC[C@H](NC(=O)[C@@H](NC(=O)[C@H](CCC(=O)O)NC(=O)[C@H](CC(C)C)NC(=O)[C@@H](NC(=O)[C@H](CCC(N)=O)NC(=O)[C@H](CCC(=O)O)NC(=O)[C@H](CCCNC(=N)N)NC(=O)[C@H](CC(N)=O)NC(=O)[C@H](Cc1c[nH]cn1)NC(=O)[C@@H](N)CCC(=O)O)C(C)C)C(C)C)C(=O)N[C@@H](Cc1ccc(O)cc1)C(=O)N[C@@H](CO)C(=O)N[C@@H](Cc1ccccc1)C(=O)N[C@@H](CCC(N)=O)C(=O)N[C@H](C(=O)N[C@@H](CC(N)=O)C(=O)N[C@@H](CC(=O)O)C(=O)N[C@@H](Cc1ccc(O)cc1)C(=O)N[C@@H](Cc1ccccc1)C(=O)O)C(C)C` [Peptide 154] (H-EHNREQVLEVMYSFQVNDYF-OH; N-terminus and C-terminus assumed) stands 5.14.
